In one experiment the test system is RAW 264.7 cells. Kind of experiment: Cellular antioxidant activity (CAA). The note with it: for IC50: average of four repetitions ± standard error of the mean. Format: cell-based, Murine. The protocol:
To evaluate the antioxidant activity of the prepared derivatives and the respective parent compounds, cellular antioxidant activity (CAA) was measured in macrophages. Compared to other in vitro antioxidant assays, this method provides partial information about the uptake and metabolism of the compounds, because, in this assay, they must first enter the cell to exert antioxidant activity.[31] […] Derivatization of quercetin at C-8 with 4-fluoroaniline (5) increased the antioxidant activity of quercetin by 1.7-fold. […] The concentration of these derivatives required to halve the cellular radicals decreased 1.5-fold compared to luteolin.
Cellular antioxidant capacity was evaluated as previously described.[31],[39] Briefly, 100 μL of RAW 264.7 cells with a density corresponding to 1 × 10^6 cells/mL were split into 96-well plates. After 24 h, cells were washed with PBS, and DMEM supplemented with DCFH-DA (0.0125 mg/mL) was added to each well together with the tested samples in the concentration range of 1.5–200 μM. After 1 h incubation in a CO2 incubator, the medium was replaced with AAPH solution (0.16 mg/mL in PBS), and fluorescence was immediately recorded (ex./em. 485/540 nm) for 2 h in 5 min intervals.

The subject of a further experiment is MRSA 3596. The experiment can be described thus: Mode of antimicrobial action with erythromycin or gentamicin, ermA- and aadD-positive strain. It counts as cell-based, S. aureus. The note with it: for effect (mode of action with erythromycin) / effect (mode of action with gentamicin) / FIC (Fractional Inhibitory Concentration Index): MRSA 3596; for MIC, Gentamicin [1 mg/L] yes / MIC: MRSA 3596 (aadD); for MIC, Gentamicin [1 mg/L] yes: with gentamicin 1 mg/L; for MIC: Staphylococcus aureus, 24 h, read-out: MIC, Gentamicin [1 mg/L] no, without gentamicin, Table S6. An excerpt: Erythromycin is a macrolide antibiotic that inhibits proteosynthesis by binding to the 50S subunit of the ribosome. In Staphylococcus species, resistance to erythromycin is associated with the presence of methyltransferases (encoded by erm genes) that alter the ribosomal target site. Another typical mechanism of resistance to erythromycin is the presence of an ATP-dependent efflux pump encoded by the msr(A) gene or a major facilitator superfamily (MFS) pump encoded by the lmrS gene. Both efflux pumps reduce the concentration of erythromycin in the cell below the therapeutic dose by transporting it across the membrane to the extracellular space. Another erythromycin resistance gene is the mph(C) gene, the product of which is a phosphotransferase that alters the structure of macrolide antibiotics. To elucidate the mechanism of erythromycin resistance modulation in S. aureus, further tests were performed with the strains MRSA 331 and MRSA 3596, which inactivate erythromycin via a single mechanism (ermC and ermA, respectively). […] Therefore, if the activity was not strain-specific, it would be necessary to consider the effect of the derivatives on this pump (Table 3).
Among the mechanisms of resistance to gentamicin previously described in S. aureus, the presence of enzymes that alter the structure of aminoglycosides is crucial. These enzymes can transfer nucleotides, phosphates, or acetyls to various −OH or −NH2 groups of gentamicin, preventing its subsequent interaction with the cellular target, i.e., the 30S ribosomal subunit. The bifunctional aminoglycoside-modifying enzyme with acetylation and phosphotransferase activities encoded by the gene aac(6’)/aph(2’), 4′,4″ adenyltransferase encoded by the aadD gene, and aminoglycoside O-phosphotransferase encoded by the gene aph(3′) are the most important.[37] […] For this reason, further testing continued using strains MRSA 3596 and MRSA 1584, which inactivate gentamicin only by a single mechanism (aadD and aac(6’)-aph(2’’), respectively).
(§1) Sensitization of multidrug-resistant clinical bacterial strains was performed according to ref[15]. Antibiotic cutoff concentration was chosen according to the European Committee on Antimicrobial Susceptibility Testing (EUCAST, Clinical breakpoints–bacteria, ver. 11.0). The 200 μM concentration of the derivatives was chosen as the highest test concentration. The absorbance detected at 600 nm was then used to estimate the number of viable cells after 24 h of incubation at 37 °C and 120 rpm.
(§2) Experiments were performed with the respective number of replicates indicated in each figure/table. MIC was determined as IC70. Both IC70 and IC50 values were calculated using the following nonlinear regression in the software GraphPad Prism: […]

For a further experiment, the system named is S. aureus MRSA 9. The experiment can be described thus: Antibacterial activity, multidrug-resistant strain. Format: cell-based. Conditions: Staphylococcus aureus, MRSA; multidrug-resistant strain; three repetitions ± SEM. The protocol:
To evaluate the ability to modulate bacterial resistance, the tested flavonoids themselves cannot exert antimicrobial activity; therefore, the nontoxic concentration was used, as indicated in Table S5. Clinically relevant antibiotics were selected at breakpoint concentrations for susceptibility testing according to the European Committee on Antimicrobial Susceptibility Testing (EUCAST, version 11.0). […] Flavonoids and their derivatives (from 1 μM to the highest nontoxic concentration) were used in combination with the breakpoint concentration of the antibiotics. After coincubation, the minimum inhibitory concentration (MIC) of flavonoids inhibiting the visible growth of bacteria was determined (Table 2).
as §1, §2

Experiment [1] deals with interleukin 6 (IL-6) production by RAW 264.7 stimulated by LPS. Kind of experiment: Anti-inflammatory activity: IL-6 production by LPS-stimulated macrophages. It counts as cell-based, Murine. Conditions: for IC50: Mus musculus, RAW264.7, LPS-stimulated RAW 264.7, average of four repetitions ± SEM. The protocol: (§3) The anti-inflammatory activity of flavonoids was evaluated as their ability to decrease the production of signaling molecules that mediate inflammation, such as nitric oxide (NO), tumor necrosis factor (TNF-α), and interleukin 6 (IL-6), in LPS-stimulated macrophages.
(§4) The anti-inflammatory activity of the tested flavonoids was determined as the ability to reduce the production of nitric oxide (NO), tumor necrosis factor (TNF-α), and interleukin 6 (IL-6) by RAW 264.7 stimulated by LPS, as previously described.[39],[40] Briefly, 1 × 10^6 cells/mL was seeded into the 96-well plate (100 μL/well). After 48 h, LPS (100 ng/mL) and the samples (3–100 μM) were added to the MEM medium. After 24 h, the medium was mixed with Griess reagent (0.04 g/mL) at a 1:1 ratio. The absorbance was measured after 15 min at 540 nm. Cell viability was determined using the resazurin assay.
To determine TNF-α levels, cells were precultivated with the tested compounds for 24 h. After 2 h of incubation with LPS, the medium was diluted 1:10 with ELISA diluent. To determine the level of IL-6, cells were cultivated for 6 h with LPS and the tested compounds. Cytokine production was determined using an uncoated ELISA performed according to the manufacturer’s instructions.

For experiment [2], the system named is nitric oxide (NO) production by RAW 264.7 stimulated by LPS. Kind of experiment: Anti-inflammatory activity: NO production by LPS-stimulated macrophages. Format: cell-based, Murine. Conditions: Mus musculus, RAW264.7; LPS-stimulated RAW 264.7; average of four repetitions ± SEM. The protocol: as §3, §4
A further experiment relates to S. aureus CCM 4223. The experiment can be described thus: Antibacterial activity, antibiotic-sensitive strain. Format: cell-based. The note with it: Staphylococcus aureus, CCM4223, three repetitions ± SEM.
Setting [3] is: Mus musculus, RAW264.7, macrophages RAW 264.7.

Molecules are shown by their SMILES. Values after ≈ are worked out from the molar mass of the structure shown.

One may read the IC50 as the midpoint of a concentration-inhibition curve.

`O=c1cc(-c2ccc(O)c(O)c2)oc2cc(O)cc(O)c12` [compound 10, luteolin, reference compound]: the 50% inhibitory concentration (IC50) in the experiment on RAW 264.7 cells (setting [3]) is 4.5 ± 0.5 µM; in the experiment with RAW 264.7 cells (macrophages RAW 264.7), 4.48 µM; with S. aureus MRSA 9, greater than 200 µM; in experiment [1], 7.3 ± 0.2 µM; in experiment [2] it was 13.3 ± 0.2 µM; with S. aureus CCM 4223, greater than 200 µM. The “effect (mode of action with erythromycin)” value in the experiment on MRSA 3596 is on record as “synergy (Fractional Inhibitory Concentration Index (FIC) < 0.5 indicates synergism)”; in the experiment on MRSA 3596 (listed as luteolin) it was “synergistic activity”. The “effect (mode of action with gentamicin)” value in the experiment with MRSA 3596 is on record as “synergy (Fractional Inhibitory Concentration Index (FIC) < 0.5 indicates synergism)”. The “MIC, Gentamicin [1 mg/L] yes” value with MRSA 3596 is 6.7 ± 0.1 µM (≈ 1.92 µg/mL). In the experiment with MRSA 3596 (MRSA 3596 (ermA), with erythromycin 1 mg/L), the “MIC, erythromycin [1 mg/L] yes” value stood at 14.3 ± 0.9 µM (≈ 4.09 µg/mL). Further, in the experiment on MRSA 3596 (MRSA 3596 (ermA), without erythromycin, Table 4), the “MIC, erythromycin [1 mg/L] no” value came to 51.1 ± 1.3 µM (≈ 14.6 µg/mL). Moreover, the entries for the “FIC (Fractional Inhibitory Concentration Index)” value with MRSA 3596 (with erythromycin) and in the experiment on MRSA 3596 (with gentamicin) were 0.28 ± 0.02 and 0.13 ± 0.01, respectively. In addition, the MIC in the experiment on MRSA 3596 worked out at 51.1 ± 1.3 µM (≈ 14.6 µg/mL).
On to `O=c1c(O)c(-c2ccc(O)c(O)c2)oc2c(Nc3ccc(F)cc3)c(O)cc(O)c12` [compound 5, 2-(3,4-Dihydroxyphenyl)-8-(4-fluoroanilino)-3,5,7-trihydroxy-4H–1-benzopyran-4-one], for which the IC50 in the experiment with RAW 264.7 cells (setting [3]) amounted to 3.4 ± 0.2 µM; in the experiment on S. aureus MRSA 9 it was 60.7 ± 2.4 µM; in experiment [1] it was 14.6 ± 0.8 µM; in experiment [2] it was 37.4 ± 1.6 µM; in the experiment on S. aureus CCM 4223 it was 28 ± 0.1 µM. In addition, the “MIC, Gentamicin [1 mg/L] yes” value with MRSA 3596 is on record as greater than 200 µM. Further, the MIC with MRSA 3596 was greater than 200 µM.
In the case of `O=c1cc(-c2ccc(O)c(O)c2)oc2c(Nc3cccc(F)c3)c(O)cc(O)c12` [compound 15, 2-(3,4-Dihydroxyphenyl)-8-(3-fluoroanilino)-5,7-dihydroxy-4H–1-benzopyran-4-one], the “change of antioxidant activity compared to the parent compound, in words” value with RAW 264.7 cells (CAA in macrophages) was “significantly decreased the antioxidant activity”. The IC50 in the experiment on RAW 264.7 cells (setting [3]) was 6.7 ± 0.2 µM; in the experiment on S. aureus MRSA 9, 56.9 ± 1.9 µM; in experiment [1], 8 ± 0.6 µM; in experiment [2], 31.8 ± 0.9 µM; in the experiment with S. aureus CCM 4223, 28 ± 2.2 µM. Moreover, the “effect (mode of action with gentamicin)” value with MRSA 3596 was “synergy (Fractional Inhibitory Concentration Index (FIC) < 0.5 indicates synergism)”. Further, in the experiment with MRSA 3596, the “MIC, Gentamicin [1 mg/L] yes” value is listed as 5.3 ± 0.1 µM (≈ 2.1 µg/mL). Further, the “FIC (Fractional Inhibitory Concentration Index)” value with MRSA 3596 (with gentamicin) was determined as 0.21 ± 0.1. Also, in the experiment on MRSA 3596, the MIC was found to be 25.7 ± 0.4 µM (≈ 10.2 µg/mL). For the same molecule, in experiment [1] (LPS-stimulated macrophages), the “ability to inhibit IL-6 production compared to luteolin, in words” value is listed as “same ability to inhibit IL-6 production as luteolin”.

For the origin of these results see article PMC11325505, “Nitrogen-Containing Flavonoids—Preparation and Biological Activity” (ACS Omega, 2024).
